# Measurements as given in patent US12643886B2 (Ontario Institute for Cancer Research (OICR), priority 2021, dated 2026).
# How the values were obtained:
# Format in all cases: biochemical
# NUAK2 (h) = molecular target: T1, NUAK2 (h) (Homo sapiens, UniProt Q9H093); assay: NUAK2 enzymatic assay (radiometric, Eurofins); conditions: full-length recombinant enzyme
# T1 construct: This assay was done radiometrically using full-length, recombinant enzyme; purchased Eurofins
# T1 sequence (Q9H093 1-628): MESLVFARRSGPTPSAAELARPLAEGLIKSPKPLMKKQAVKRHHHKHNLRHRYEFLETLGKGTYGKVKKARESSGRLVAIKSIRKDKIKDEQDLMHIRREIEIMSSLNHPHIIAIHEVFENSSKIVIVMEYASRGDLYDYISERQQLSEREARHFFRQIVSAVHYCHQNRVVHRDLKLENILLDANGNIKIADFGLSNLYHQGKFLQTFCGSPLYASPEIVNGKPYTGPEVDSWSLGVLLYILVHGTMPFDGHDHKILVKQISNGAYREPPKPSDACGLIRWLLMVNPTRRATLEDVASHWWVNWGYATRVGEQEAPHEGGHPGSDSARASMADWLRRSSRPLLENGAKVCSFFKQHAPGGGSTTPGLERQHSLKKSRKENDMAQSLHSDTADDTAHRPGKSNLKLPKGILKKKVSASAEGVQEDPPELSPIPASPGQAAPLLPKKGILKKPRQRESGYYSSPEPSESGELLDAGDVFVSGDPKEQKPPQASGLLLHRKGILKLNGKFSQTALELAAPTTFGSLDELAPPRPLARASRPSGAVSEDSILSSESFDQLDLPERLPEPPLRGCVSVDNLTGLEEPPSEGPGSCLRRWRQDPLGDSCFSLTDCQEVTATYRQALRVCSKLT
# Procedure, shortened: (§1)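 Full-length recombinant NUAK2 incubated 40 min at room temperature in 8 mM MOPS pH 7.0, 0.2 mM EDTA, 10 mM magnesium acetate, 300 μM peptide substrate and 33P-ATP. Stopped with 0.5% phosphoric acid; filter-bound label counted by scintillation. IC50 reported as ranges; NUAK1 and Aurora A served as counter-screens.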
# NUAK1 = molecular target: T2, NUAK1 (Homo sapiens, UniProt O60285); assay: Counter-screen against NUAK1
# T2 sequence (O60285 1-661): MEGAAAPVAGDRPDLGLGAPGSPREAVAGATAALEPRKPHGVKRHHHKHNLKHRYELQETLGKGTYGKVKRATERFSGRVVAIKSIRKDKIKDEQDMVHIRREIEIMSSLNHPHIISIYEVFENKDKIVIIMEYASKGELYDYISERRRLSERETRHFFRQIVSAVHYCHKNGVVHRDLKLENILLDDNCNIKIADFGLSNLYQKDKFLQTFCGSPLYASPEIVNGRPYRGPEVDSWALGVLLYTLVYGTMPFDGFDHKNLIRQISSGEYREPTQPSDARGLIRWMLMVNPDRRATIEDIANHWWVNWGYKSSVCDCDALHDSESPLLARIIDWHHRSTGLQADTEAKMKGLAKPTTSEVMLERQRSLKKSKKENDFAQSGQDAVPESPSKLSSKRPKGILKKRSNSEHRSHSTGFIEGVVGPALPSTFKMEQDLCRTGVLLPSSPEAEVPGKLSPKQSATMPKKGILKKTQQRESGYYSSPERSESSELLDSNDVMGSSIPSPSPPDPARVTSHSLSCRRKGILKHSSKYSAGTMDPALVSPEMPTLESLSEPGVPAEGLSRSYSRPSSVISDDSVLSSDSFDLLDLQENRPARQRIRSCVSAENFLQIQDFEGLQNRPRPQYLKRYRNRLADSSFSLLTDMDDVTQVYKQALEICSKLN
# Procedure, shortened: as §1
# Aurora A = molecular target: T3, Aurora A (Homo sapiens, UniProt O14965); assay: Counter-screen against Aurora A; conditions: read-out: AUR-A (IC50)
# T3 sequence (O14965 1-403): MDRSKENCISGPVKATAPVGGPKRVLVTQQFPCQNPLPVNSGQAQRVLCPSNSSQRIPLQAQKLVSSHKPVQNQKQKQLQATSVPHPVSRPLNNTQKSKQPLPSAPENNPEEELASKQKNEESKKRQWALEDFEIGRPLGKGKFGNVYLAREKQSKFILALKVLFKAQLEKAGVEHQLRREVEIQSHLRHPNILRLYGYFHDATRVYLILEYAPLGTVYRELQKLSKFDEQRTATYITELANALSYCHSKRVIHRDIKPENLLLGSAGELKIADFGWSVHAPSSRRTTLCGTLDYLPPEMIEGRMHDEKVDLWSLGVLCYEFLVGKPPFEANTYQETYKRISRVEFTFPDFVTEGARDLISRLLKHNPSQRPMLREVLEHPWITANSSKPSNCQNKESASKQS
# Procedure, shortened: as §1
IC50 (NUAK2 (h)) [nM],IC50 (NUAK1) [nM],IC50 (Aurora A) [nM],SMILES
0.1 to 10,11 to 100,> 1000,"C[C@@H]1CN(c2ccc(Nc3ncc(C(F)(F)F)c(Nc4cccc5c4C(=O)NC5)n3)c(OC(F)F)c2)CCN1 [Compound I-57, (R)-7-((2-((2-(difluoromethoxy)-4-(3-methylpiperazin-1-yl)phenyl)amino)-5-(trifluoromethyl)pyrimidin-4-yl)amino)isoindolin-1-one]"
11 to 100,11 to 100,101 to 1000,"O=C1NCc2cccc(Nc3nc(Nc4ccc(N5CCC6(CCNCC6)CC5)cc4OC(F)F)ncc3C(F)(F)F)c21 [Compound I-58, 7-((2-((2-(difluoromethoxy)-4-(3,9-diazaspiro[5.5]undecan-3-yl)phenyl)amino)-5-(trifluoromethyl)pyrimidin-4-yl)amino)isoindolin-1-one]"
11 to 100,11 to 100,101 to 1000,"O=C1NCc2cccc(Nc3nc(Nc4ccc(N5CCOCC5)cc4OC(F)F)ncc3C(F)(F)F)c21 [Compound I-60, 7-((2-((2-(difluoromethoxy)-4-morpholinophenyl)amino)-5-(trifluoromethyl)pyrimidin-4-yl)amino)isoindolin-1-one]"
11 to 100,11 to 100,101 to 1000,"CCN(CC)CCOc1ccc(Nc2ncc(C(F)(F)F)c(Nc3cccc4c3C(=O)NC4)n2)cc1 [Compound I-61, 7-((2-((4-(2-(diethylamino)ethoxy)phenyl)amino)-5-(trifluoromethyl)pyrimidin-4-yl)amino)isoindolin-1-one]"
0.1 to 10,0.1 to 10,11 to 100,"CCN(CC)CCOc1ccc(Nc2ncc(Cl)c(Nc3cccc4c3C(=O)NC4)n2)cc1 [Compound I-62, 7-((5-chloro-2-((4-(2-(diethylamino)ethoxy)phenyl)amino)pyrimidin-4-yl)amino)isoindolin-1-one]"
0.1 to 10,11 to 100,> 1000,"O=C1NCc2cccc(Nc3nc(Nc4ccc(N5C[C@H]6CC[C@@H](C5)N6)cc4OC(F)F)ncc3Cl)c21 [Compound I-64, 7-((2-((4-((1R,5S)-3,8-diazabicyclo[3.2.1]octan-3-yl)-2-(difluoromethoxy)phenyl)amino)-5-chloropyrimidin-4-yl)amino)isoindolin-1-one]"
0.1 to 10,101 to 1000,101 to 1000,"CC1(C)CN(c2ccc(Nc3ncc(C(F)(F)F)c(Nc4cccc5c4C(=O)NC5)n3)c(OC(F)F)c2)CCN1 [Compound I-65, 7-((2-((2-(difluoromethoxy)-4-(3,3-dimethylpiperazin-1-yl)phenyl)amino)-5-(trifluoromethyl)pyrimidin-4-yl)amino)isoindolin-1-one]"
0.1 to 10,11 to 100,101 to 1000,"O=C1NCc2cccc(Nc3nc(Nc4ccc(N5C[C@@H]6C[C@H]5CN6)cc4OC(F)F)ncc3Cl)c21 [Compound I-66, 7-((2-((4-((1S,4S)-2,5-diazabicyclo[2.2.1]heptan-2-yl)-2-(difluoromethoxy)phenyl)amino)-5-chloropyrimidin-4-yl)amino)isoindolin-1-one]"
0.1 to 10,11 to 100,101 to 1000,"O=C1NCc2cccc(Nc3nc(Nc4ccc(N5CCC(N6CCNCC6)CC5)cc4OC(F)F)ncc3Cl)c21 [Compound I-67, 7-((5-chloro-2-((2-(difluoromethoxy)-4-(4-(piperazin-1-yl)piperidin-1-yl)phenyl)amino)pyrimidin-4-yl)amino)isoindolin-1-one]"
0.1 to 10,11 to 100,101 to 1000,"COc1nc(N2CCN(C)CC2)ccc1Nc1ncc(C(F)(F)F)c(Nc2cccc3c2C(=O)NC3)n1 [Compound I-68, 7-((2-((2-methoxy-6-(4-methylpiperazin-1-yl)pyridin-3-yl)amino)-5-(trifluoromethyl)pyrimidin-4-yl)amino)isoindolin-1-one]"
0.1 to 10,11 to 100,101 to 1000,"CN1CCCN(C2CCN(c3ccc(Nc4ncc(C(F)(F)F)c(Nc5cccc6c5C(=O)NC6)n4)c(OC(F)F)c3)CC2)CC1 [Compound I-69, 7-((2-((2-(difluoromethoxy)-4-(4-(4-methyl-1,4-diazepan-1-yl)piperidin-1-yl)phenyl)amino)-5-(trifluoromethyl)pyrimidin-4-yl)amino)isoindolin-1-one]"
0.1 to 10,11 to 100,101 to 1000,"O=C1NCc2cccc(Nc3nc(Nc4ccc(N5[C@@H]6CC[C@H]5CNC6)cc4OC(F)F)ncc3C(F)(F)F)c21 [Compound I-70, 7-((2-((4-((1R,5S)-3,8-diazabicyclo[3.2.1]octan-8-yl)-2-(difluoromethoxy)phenyl)amino)-5-(trifluoromethyl)pyrimidin-4-yl)amino)isoindolin-1-one]"
0.1 to 10,11 to 100,101 to 1000,"O=C1NCc2cccc(Nc3nc(Nc4ccc(N5C[C@H]6C[C@@H]5CN6)cc4OC(F)F)ncc3C(F)(F)F)c21 [Compound I-71, 7-((2-((4-((1R,4R)-2,5-diazabicyclo[2.2.1]heptan-2-yl)-2-(difluoromethoxy)phenyl)amino)-5-(trifluoromethyl)pyrimidin-4-yl)amino)isoindolin-1-one]"
0.1 to 10,11 to 100,101 to 1000,"O=C1NCc2cccc(Nc3nc(Nc4ccc(N5C[C@H]6C[C@@H]5CN6)cc4OC(F)F)ncc3Cl)c21 [Compound I-72, 7-((2-((4-((1R,4R)-2,5-diazabicyclo[2.2.1]heptan-2-yl)-2-(difluoromethoxy)phenyl)amino)-5-chloropyrimidin-4-yl)amino)isoindolin-1-one]"
0.1 to 10,0.1 to 10,101 to 1000,"CC(C)N1C[C@@H]2C[C@H]1CN2c1ccc(Nc2ncc(C(F)(F)F)c(Nc3cccc4c3C(=O)NC4)n2)c(OC(F)F)c1 [Compound I-73, 7-((2-((2-(difluoromethoxy)-4-((1S,4S)-5-isopropyl-2,5-diazabicyclo[2.2.1]heptan-2-yl)phenyl)amino)-5-(trifluoromethyl)pyrimidin-4-yl)amino)isoindolin-1-one]"
0.1 to 10,11 to 100,101 to 1000,"O=C1NCc2cccc(Nc3nc(Nc4ccc(N5CCCNCC5)cc4OC(F)F)ncc3Cl)c21 [Compound I-74, 7-((2-((4-(1,4-diazepan-1-yl)-2-(difluoromethoxy)phenyl)amino)-5-chloropyrimidin-4-yl)amino)isoindolin-1-one]"
0.1 to 10,0.1 to 10,0.1 to 10,"O=C1NCc2cccc(Nc3nc(Nc4ccc(N5[C@@H]6CC[C@H]5CNC6)cc4OC(F)F)ncc3Cl)c21 [Compound I-75, 7-((2-((4-((1R,5S)-3,8-diazabicyclo[3.2.1]octan-8-yl)-2-(difluoromethoxy)phenyl)amino)-5-chloropyrimidin-4-yl)amino)isoindolin-1-one]"
0.1 to 10,11 to 100,101 to 1000,"O=C1NCc2cccc(Nc3nc(Nc4ccc(N5C[C@H]6CNC[C@H]6C5)cc4OC(F)F)ncc3Cl)c21 [Compound I-76, 7-((5-chloro-2-((2-(difluoromethoxy)-4-((3aR,6aS)-hexahydropyrrolo[3,4-c]pyrrol-2(1H)-yl)phenyl)amino)pyrimidin-4-yl)amino)isoindolin-1-one]"
